{"source": "patent US20160045487A1", "about": "“COMPOSITIONS AND METHODS FOR TREATING NEUROPATHY” (CHILDEREN'S MEDICAL CENTER CORPORATION, priority 2013, published 2016)", "key": {"wild type mice": {"system": "wild type mice", "experiment": "Electron microscopy of sciatic nerve Remak bundles, wild type mice", "assay_type": "in vivo, mouse", "settings": "WT mice; XIB4035 cream 4 weeks", "protocol": "As a first test, a cream containing XIB4035 (1.5 mM) was applied directly to the hind paws of GFAP-DN-erbB4 and wild type mice twice daily for a period of 4 weeks starting prior to symptom onset (P21). Mice of both genotypes were also treated with the base cream containing no drug for control. Mice were tested for responses to a noxious thermal stimulus prior to the initiation of treatment and every 7 days for the duration of the experiment.\nThe cream containing XIB4035 (1.5 mM, ZereneX Molecular Ltd., Manchester, UK) consisted of N-methyl-pyrrolidone (6.25%), isopropyl myristate (6.25%) and petroleum jelly (87.5%). Control cream had the same ingredients without XIB4035. Cream was applied twice daily to the hind paws of mice starting at P21 for a period of 4 weeks for prophylactic treatment of GFAP-DN-erbB4. Diabetic mice were treated twice daily for 8 weeks after streptozotocin (STZ) injection prior to onset of hyperglycemia and for another 8 weeks during neuropathy testing. Cream treatment in therapeutic studies using GFAP-DN-erbB4 mice was performed twice daily beginning after onset of SFN at P28 and either continued for 5 weeks (chronic treatment) or 1 week (acute treatment).\nTissue was prepared as in (Lacomis, supra). Briefly, mice were perfused intracardially with 2% paraformaldehyde, 2.5% gluteraldehyde and 0.03% picric acid in 0.1 M cacodylate buffer (pH 7.2). […]"}, "GFRα1/RET": {"target": "T1, GFRα1/RET (UniProt P35546+Q62997)", "T1 construct": "N2A cells (which express RET) transfected with GFRα1 or GFRα3 expression constructs; expressed in transfected cells; host or cells: Neuro2A (N2A) cells; GFRα1 plasmid was a gift from Dr. Milbrandt; RET is endogenous", "T1 sequence (Q62997 25-430 limits assumed)": "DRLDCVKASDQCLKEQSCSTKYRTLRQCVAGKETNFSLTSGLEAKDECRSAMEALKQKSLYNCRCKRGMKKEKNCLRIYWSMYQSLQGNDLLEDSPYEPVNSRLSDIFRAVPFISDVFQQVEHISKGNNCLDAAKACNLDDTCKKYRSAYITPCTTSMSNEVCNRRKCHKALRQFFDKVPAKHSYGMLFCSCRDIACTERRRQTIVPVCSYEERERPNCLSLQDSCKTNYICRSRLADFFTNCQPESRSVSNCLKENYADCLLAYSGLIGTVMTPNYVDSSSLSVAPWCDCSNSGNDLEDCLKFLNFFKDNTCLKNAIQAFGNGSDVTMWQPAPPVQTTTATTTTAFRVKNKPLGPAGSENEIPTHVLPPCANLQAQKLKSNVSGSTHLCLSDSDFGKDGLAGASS", "T1 sequence (P35546 29-1115)": "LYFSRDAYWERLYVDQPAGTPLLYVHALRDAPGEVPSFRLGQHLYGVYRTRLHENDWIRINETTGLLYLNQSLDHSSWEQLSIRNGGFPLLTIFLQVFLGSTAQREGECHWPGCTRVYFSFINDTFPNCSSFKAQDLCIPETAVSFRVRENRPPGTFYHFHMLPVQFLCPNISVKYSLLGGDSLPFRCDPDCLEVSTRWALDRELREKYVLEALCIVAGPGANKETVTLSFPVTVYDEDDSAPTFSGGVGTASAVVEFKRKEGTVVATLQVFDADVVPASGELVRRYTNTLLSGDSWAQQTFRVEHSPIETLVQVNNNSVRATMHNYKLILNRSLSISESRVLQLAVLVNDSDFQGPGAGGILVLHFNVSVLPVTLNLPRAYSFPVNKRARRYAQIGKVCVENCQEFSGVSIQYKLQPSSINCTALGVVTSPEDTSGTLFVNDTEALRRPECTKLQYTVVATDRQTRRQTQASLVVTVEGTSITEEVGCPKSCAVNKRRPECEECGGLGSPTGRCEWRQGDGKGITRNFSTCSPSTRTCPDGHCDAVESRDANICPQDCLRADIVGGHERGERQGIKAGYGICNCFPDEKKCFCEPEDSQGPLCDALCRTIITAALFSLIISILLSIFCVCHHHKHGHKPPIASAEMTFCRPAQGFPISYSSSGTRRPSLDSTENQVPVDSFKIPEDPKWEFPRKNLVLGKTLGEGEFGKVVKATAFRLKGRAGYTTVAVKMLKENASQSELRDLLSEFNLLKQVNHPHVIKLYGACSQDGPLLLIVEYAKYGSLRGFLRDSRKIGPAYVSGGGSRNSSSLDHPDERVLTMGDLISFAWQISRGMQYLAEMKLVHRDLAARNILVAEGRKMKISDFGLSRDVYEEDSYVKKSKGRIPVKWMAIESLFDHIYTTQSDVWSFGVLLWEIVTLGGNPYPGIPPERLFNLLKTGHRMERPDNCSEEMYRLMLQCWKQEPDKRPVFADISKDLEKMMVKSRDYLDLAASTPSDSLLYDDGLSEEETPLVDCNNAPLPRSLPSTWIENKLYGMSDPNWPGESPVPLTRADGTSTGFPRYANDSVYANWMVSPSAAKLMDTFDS", "experiment": "RET phosphorylation in N2A cells transfected with GFRα1", "assay_type": "cell-based, rat GFRα1 in murine N2A cells", "protocol": "Since the original report argued that XIB4035 displaces GDNF binding to GFRα1 expressing cells (FIG. 2 in Tokugawa et al., Neurochem Int 42, 81-86 (2003).), potentially ARTN, on TH-luciferase activity and Ret phosphorylation. […] In this experiment, cells were treated with GDNF or ARTN with or without XIB4035 for 10 minutes and cell lysates were either collected immediately or treatment was washed out and replaced with growth media for 30, 60, or 120 minutes. […] Therefore, we tested cells expressing only one GFRα using either N2A cells (which express RET) transfected with GFRα1 or GFRα3 expression constructs, or B(E)2-C cells, which express only GFRα2 together with RET. […] The GFRα1 or GFRα3 transfected N2A cells were then treated with XIB4035 alone, the appropriate ligand for the expressed receptor alone, or XIB4035 and ligand in combination for 10 minutes, and collected lysates immediately after treatment or 60 minutes after washout. […] Similar results were obtained with GFRα2 and NRTN using B(E)2-C cells (FIG. 8). Thus, XIB4035 is a positive modulator of signaling by GDNF family ligands and their receptors, not an agonist for GFRα1 as previously reported.\nFor phosphorylated Ret immunoblot experiments, cells were treated with various combinations of molecules for 10 minutes and either collected immediately or had treatment washed out and returned to control treatment media for the times indicated prior to cell collection. Lysates were collected in buffer containing: 50 mM Tris-HCL, 1% TX-100, 0.25% Deoxycholic acid, 150 mM sodium chloride, 1 mM EDTA, 0.1 mM sodium fluoride, 0.1 mM sodium pyrophosphate, 0.02 mM sodium orthovanadate, and protease inhibitors Immunoblots were blocked in 5% bovine serum albumin in tris-buffered saline+0.2% Tween 20+0.1 mM sodium fluoride, 0.1 mM sodium pyrophosphate, and 0.02 mM sodium orthovanadate and probed in blocking solution using anti-phospotyrosine (4G10) mouse monoclonal antibody (1:2000; EMD Milipore Corp., Billerica, Mass.). […]"}, "[1]": {"system": "STZ-induced diabetic mice", "experiment": "Hargreaves thermal nociception test in STZ-induced diabetic mice", "assay_type": "in vivo, mouse", "settings": "topical cream for 16 weeks from hyperglycemia; tests from week 8", "excerpt": "To explore the utility of XIB4035 in a more clinically relevant model, diabetic peripheral neuropathy was selected because more than 50% of all diabetic patients develop some form of peripheral neuropathy, particularly SFN. Streptozotocin (STZ) induced diabetic model was chosen, in which a single injection of STZ kills pancreatic beta cells causing diabetes and produces SFN symptoms several weeks later. Upon becoming hyperglycemic, STZ injected mice were topically treated daily with either control or XIB4035 containing cream for 16 weeks. Thermal nociceptive tests began 8 weeks after initiation of treatment and were repeated every two weeks.\nAdult female C57 Bl/6J mice were made diabetic (blood glucose >15 mmol/L) by injection of STZ (90 mg/kg i.p.) on two consecutive days, with confirmation of hyperglycemia made 7 days after STZ delivery. Paw thermal response latency of the right paw was measured every two weeks from weeks 8-16 of diabetes using a modified Hargeaves test, as described\nThe cream containing XIB4035 (1.5 mM, ZereneX Molecular Ltd., Manchester, UK) consisted of N-methyl-pyrrolidone (6.25%), isopropyl myristate (6.25%) and petroleum jelly (87.5%). Control cream had the same ingredients without XIB4035. Cream was applied twice daily to the hind paws of mice starting at P21 for a period of 4 weeks for prophylactic treatment of GFAP-DN-erbB4. […]"}}, "data": [{"smiles": "CCN(CC)CCCC(C)Nc1cc(/C=C/c2ccccc2Cl)nc2cc(Cl)ccc12", "note": "(centres unmarked) [XIB4035, N4-{7-chloro-2-[(E)-2-(2-chloro-phenyl)-vinyl]-quinolin-4-yl}-N1,N1-diethyl-pentane-1,4-diamine]", "values": [{"measurement": "c-fiber area", "setting": "wild type mice", "result": "1.81 ± 0.06", "unit": "µm²"}, {"measurement": "c-fibers/Remak bundle", "setting": "wild type mice", "result": "8.80 ± 0.52"}, {"measurement": "induction of RET phosphorylation", "setting": "GFRα1/RET; XIB4035 alone, 10 minutes", "result": "did not induce RET phosphorylation"}, {"measurement": "RET phosphorylation at the 60 min time-point compared to ligand alone", "setting": "GFRα1/RET; XIB4035 and ligand co-treatment, 60 minutes after washout", "result": "clearly prolonged"}, {"measurement": "sensory function (thermal nociceptive tests)", "setting": "[1]", "result": "better sensory function than those exposed to the control cream"}]}]}
